Experimental data: US20090203632A1, “COMPOSITIONS AND METHODS FOR TREATING CONTRACTURE” (Angiotech International AG, priority 2004, published 2009)

Test: Water solubility of 5-FU
Type: physicochemical
Details: read-out: measured water solubility
Experimental: A hyaluronic acid formulation that includes 5-FU can be prepared as described. 5-FU is combined with 10 mg hyaluronic acid (1 MDa), 1 ml sterile water. The product is stirred until a uniform gel solution, free of particular polymer or drug is achieved. Alternatively, the HA and water may be combined, stirred and autoclaved to homogenize the solution. After dissolving the polymer, the 5-FU may be added with stirring. NaCl is added (as required for isotonicity), and the pH is adjusted to between 6-8 with NaOH and HCl as required. […] The formulation may be injected to the site of treatment (e.g., into a joint) in a volume appropriate to that site. For example, a knee joint might receive a 2 ml injection, whereas a finger joint or tendon sheath may receive substantially less.

- solubility: 12.9 mg/mL
SMILES: O=c1[nH]cc(F)c(=O)[nH]1 [Formula 5-FU, 5-Fluorouracil]
